Results reported in paper PMC9103715, “New Panx-1 Blockers: Synthesis, Biological Evaluation and Molecular Dynamic Studies” (International Journal of Molecular Sciences, 2022).
“Also recorded” adds a separate entry of the source.

Key:
[1] = tested on: Panx-1; conditions: cited from earlier work; for IC50: Panx-1 blockers, reference compounds
[2] = molecular target: T1, Panx-1 channels (Mus musculus, UniProt Q9JIP4); assay: Voltage clamp on Xenopus laevis oocytes expressing Panx-1 channels; format: cell-based; conditions: for I (%) inhibition of Panx-1 currents / inhibition at 50 µM: 50 µM, voltage clamp, Xenopus laevis oocytes expressing Panx-1 channels; for inhibition at 50 µM: read-out: I (%) inhibition of Panx-1 currents
T1 construct: expressed in transfected cells; host or cells: Xenopus laevis oocytes injected with in vitro-transcribed mRNA
Experimental: All new products were screened as Panx-1 blockers at the dose of 50 µM using the Voltage Clamp technique on Xenopus Laevis oocytes expressing Panx-1 channels. The membrane potential of the cells was held at -60 mV and voltage steps to +60 mV were applied to induce membrane currents. To verify that Panx-1 channels carried the currents, in each experiment 100 µM carbenoxolone (CBX) was applied. At this concentration, CBX is known to yield 100% inhibition of Panx-1 activity. If present, leak currents resistant to CBX were subtracted from the total current to assess % inhibition mediated by the tested compounds. Table 1 and Table 2 report the electrophysiological results of naphthalene-2-sulphonic acid derivatives bearing at position 5 an amino- (3a–e, 4 and 5) or amide group (7a–g, 8 and 9) and of compound 13.
Oocytes of Xenopus laevis are prepared as previously described in [39] where the oocytes are isolated from surgically removed ovary segments incubated in an Oocyte Ringe solution Ca2-free (OR2: in mM: 82.5 NaCl, 2.5 KCl, 1.0 MgCl2, […], 1.0 Na2HPO4 e 5.0 HEPES, pH 7.5) with 2 mg/mL of collagenase and antibiotics (10,000 U/mL penicillin and 10 mg/mL of streptomycin) stirred at room temperature for 3 h. After being washed with OR2, oocytes free of follicular cells and that have a uniform pigmentation are chosen and stored in OR2 for 18 °C.
Mouse pannexin1, in pCS2, was linearised with NotI. In vitro transcription was performed with the polymerase SP6, using the Message Machine kit (Ambion). mRNA was quantified by absorbance (260 nm), and the proportion of full-length transcripts was checked by agarose gel electrophoresis. In vitro-transcribed mRNA (~20 nL) was injected into Xenopus laevis oocytes.
Whole-cell membrane currents of oocytes were measured using a two-electrode voltage clamp (Gene Clamp 500B, Axon Instruments/Molecular Devices Sunnyvale, Union City, CA, USA). Glass pipettes were pulled using a P-97 Flaming/Brown type puller (Sutter, Novato, CA, USA). The recording chamber was perfused continuously with frog Ringer (OR) solution (in mM: 82.5 NaCl, 2.5 KCl, 1 CaCl2, 1 MgCl2, 1 Na2HPO4, and 5 HEPES, pH 7.5).
Membrane conductance was determined using voltage pulses, and the pulse-induced current amplitudes were divided by the amplitudes of the voltage steps. For calculation of % inhibition, leak currents were subtracted. Typically, leak currents after the interventions were smaller than at the beginning of the experiment and this smaller value was used for the subtraction to avoid overestimation of the inhibitory effect. For an independent measure of the leak current, oocytes at the end of the experiment were exposed to 100 µM carbenoxolone, which is known to close Panx1 channels 100%. Oocytes expressing Panx1 were held at −60 mV, and pulses to +60 mV were applied to transiently open the channels by means of the voltage gate. Pulses 5 s in duration were applied at 0.1 Hz for current and conductance measurements.

[3] = molecular target: T1, Panx-1 channels; assay: as above; format: cell-based; conditions: for IC50: dose-response curves, Panx1-mediated membrane currents in oocytes; for % inhibition of Panx1-mediated membrane currents: Figure 4 dose-response plot, concentration not printed in the legend
[4] = tested on: oxaliplatin-induced thermal allodynia in mice; assay: Cold plate test in mouse model of oxaliplatin-induced neuropathic pain; format: in vivo; conditions: oxaliplatin-treated mice; for time of maximum anti-allodynic effect: 3 nmol intrathecally; for pain threshold (licking latency), Cold plate test: 1 nmol and 3 nmol intrathecally, vs oxaliplatin + vehicle
Experimental: The two selected Panx-1 blockers, 4 and 13, were tested in a mouse model of oxaliplatin-induced neuropathic pain that involves this channel. Oxaliplatin is a third-generation platinum-based chemotherapeutic agent that, similar to other platinum-based compounds, interferes with the proliferation of tumor cells, leading to cancer cell destruction […] Recent studies have highlighted the efficacy of selective Panx1 antagonists in […] evoked by repeated administrations of antineoplastic drug, making Panx1 a possible therapeutic target in reducing chemotherapeutic-induced neuropathic pain [16, 23]. In this experiment we tested the anti-hypersensitivity properties of two novel Panx1 antagonists in a mouse model of oxaliplatin-induced thermal allodynia. […] This time delay is reported here as licking latency (s). The two compounds were acutely injected intrathecally at 1 nmol and 3 nmol in oxaliplatin-treated animals. […] The effect recorded was dose-dependent (Figure 5b).
Eight-week-old male CD-1 mice (Envigo, Varese, Italy) weighing approximately 20–25 g at the beginning of the experimental procedure were used. Animals were housed in the Centro Stabulazione Animali da Laboratorio (CeSAL; University of Florence, Italy) and used at least 1 week after their arrival; 10 mice were housed per cage (size 26 cm × 41 cm). Animals were fed a standard laboratory diet and tap water ad libitum and kept at 23 ± 1 °C with a 12 h light/dark cycle (light at 7 a.m.).
Mice treated with oxaliplatin (Carbosynth, Pangbourne, UK; 2.4 mg kg^−1) were administered intraperitoneally (i.p.) for 2 weeks Oxaliplatin was dissolved in a 5% glucose solution. Control animals received an equivalent volume of vehicle. Behavioural tests were performed starting from day 14, when neuropathy was well established.
Compounds 4 and 13 were intrathecally (i.t.) injected in conscious mice as previously described. Compound 4 was dissolved in sterile saline solution while compound 13 was dissolved in a mixture consisting of PEG400, TWEEN 20 and sterile saline solution (1:1:3, respectively). Briefly, a 25 µL Hamilton syringe connected to a 30-gauge needle was intervertebrally inserted between the L4 and L5 region, and advanced 6 mm into the lumbar enlargement of the spinal cord. Behavioural measurements were performed before and 15 min, 30 min, 45 min, and 60 min after the administration of compounds.
Thermal allodynia was assessed using the Cold-plate test. With minimal animal-handler interaction, mice were taken from home-cages, and placed onto the surface of the cold-plate (Ugo Basile, Varese, Italy) maintained at a constant temperature of 4 ± 1 °C. Ambulation was restricted by a cylindrical plexiglas chamber (diameter: 10 cm, height: 15 cm), with open top. A timer controlled by foot peddle began timing response latency from the moment the mouse was placed onto the cold-plate. Pain-related behaviour (licking of the hind paw) was observed, and the time (seconds) of the first sign was recorded. The cut-off time of the latency of paw lifting or licking was set at 30 s.
Figure 5 Pain-relieving effect of (a) 4 and (b) 13 on oxaliplatin-induced thermal allodynia in mice. Cold plate test. […] Pain-related behavior (i.e., lifting and licking of the hind paw) was observed and the time (s) of the first sign was recorded. ** p < 0.01 vs. vehicle + vehicle treated animals; ^ p < 0.05 and ^^ p < 0.01 vs. oxaliplatin + vehicle treated animals. […]

T1 sequence (Q9JIP4 whole entry): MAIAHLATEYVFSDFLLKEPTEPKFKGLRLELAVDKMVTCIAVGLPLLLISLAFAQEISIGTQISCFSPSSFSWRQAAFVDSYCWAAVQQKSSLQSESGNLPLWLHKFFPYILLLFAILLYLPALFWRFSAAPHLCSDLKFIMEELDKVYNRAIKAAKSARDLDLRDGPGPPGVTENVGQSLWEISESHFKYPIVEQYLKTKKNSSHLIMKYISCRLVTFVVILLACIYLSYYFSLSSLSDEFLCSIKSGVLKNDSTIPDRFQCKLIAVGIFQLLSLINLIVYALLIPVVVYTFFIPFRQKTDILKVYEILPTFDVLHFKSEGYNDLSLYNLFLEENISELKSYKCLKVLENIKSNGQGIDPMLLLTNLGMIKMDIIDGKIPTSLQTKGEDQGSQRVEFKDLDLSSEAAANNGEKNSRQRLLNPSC

| Structure (SMILES) | inhibition at 50 µM [2] | melting point | also measured |
| --- | --- | --- | --- |
| CCN(Cc1cccc(S(=O)(=O)O)c1)c1ccc(C(=C2C=CC(=[N+](CC)Cc3cccc(S(=O)(=O)O)c3)C=C2)c2ccccc2S(=O)(=O)[O-])cc1 [Brilliant Blue FCF] |  |  | IC50 [1]: 0.27 µM |
| O=C(Nc1cccc2cc(S(=O)(=O)O)ccc12)c1ccc(S(=O)(=O)N(Cc2ccccc2)Cc2ccccc2)cc1 [Compound 7d, 5-[4-(N,N-dibenzylsulfamoyl)benzamido]naphthalene-2-sulfonic acid] | 75% |  | I (%) inhibition of Panx-1 currents [2]: 75.2 ± 5.90 (4) %; IC50 [3]: 15.1 µM |
| CCCCN(CCCC)S(=O)(=O)c1ccc(C(=O)Nc2cccc3cc(S(=O)(=O)O)ccc23)cc1 [Compound 7c, 5-[4-(N,N-dibutylsulfamoyl)benzamido]naphthalene-2-sulfonic acid] | 67.8 ± 2.2% |  | IC50 [3]: 40.4 µM |
| O=C(O)c1ccc(CNc2cccc3cc(S(=O)(=O)O)ccc23)cc1 [Compound 4, 4-[(6-Sulfonaphthalen-1-yl)aminomethyl]benzoic Acid] | 97 ± 1.5% |  | time of maximum anti-allodynic effect [4]: 45 min; time after injection from which the enhancement of pain threshold is significant ([4]; intrathecal injection): 30 min; pain threshold (licking latency), Cold plate test [4]: significantly increase the mouse pain threshold; also recorded: significant enhancement of the pain threshold; IC50 [3]: 8.8 µM |
| O=S(=O)(O)c1ccc2c(NCCCc3ccccc3)cccc2c1 [Compound 3c, 5-[(3-Phenylpropyl)amino]naphthalene-2-sulfonic acid] | 66.7 ± 5.5% |  | IC50 [3]: 9 µM |
| Nc1c(C(=O)O)cnn1-c1ccc(S(=O)(=O)N(CCc2ccccc2)Cc2ccccc2)cc1 [Compound 30, 5-Amino-1-(4-(N-benzyl-N-phenethylsulfamoyl)phenyl)-1H-pyrazole-4-carboxylic acid] | 30 ± 7.2% | 263 to 266 °C (dec.) |  |
| CC1(C)[C@@H](OC(=O)CCC(=O)O)CC[C@]2(C)[C@H]3C(=O)C=C4[C@@H]5C[C@@](C)(C(=O)O)CC[C@]5(C)CC[C@@]4(C)[C@]3(C)CC[C@@H]12 [Carbenoxolone, carbenoxolone] |  |  | inhibition of Panx-1 activity ([1]; 100 µM carbenoxolone): 100%; IC50 [1]: 10 µM; % inhibition of Panx1-mediated membrane currents [3]: 100% |
| Nc1c(C(=O)O)cnn1-c1ccc(S(=O)(=O)NCc2ccccc2)cc1 [Compound 23, 5-Amino-1-(4-(N-benzylsulfamoyl)phenyl)-1H-pyrazole-4-carboxylic acid] | 16.3 ± 6.4% | 207 to 210 °C |  |
| CCCN(CCC)S(=O)(=O)c1ccc(C(=O)O)cc1 [Probenecid, reference compound] | 29% |  | classification as active or inactive Panx-1 blocker ([2]; grouping chosen for the virtual screening): inactive; IC50 [1]: 150 µM |
| O=C(O)c1cc([N+](=O)[O-])ccc1NCCCc1ccccc1 [NPPB, 5-nitro-2-(3-phenylpropylamino)benzoic acid] |  |  | IC50 [1]: 50 µM |
| Nc1c(C(=O)O)cnn1-c1ccc(S(N)(=O)=O)cc1 [Compound 17, 5-Amino-1-(4-sulfamoylphenyl)-1H-pyrazole-4-carboxylic acid] | 0% | 210 to 211 °C |  |
| Nc1c(C(=O)O)cnn1-c1ccc(S(=O)(=O)NCCc2ccccc2)cc1 [Compound 28, 5-Amino-1-(4-(N-phenethylsulfamoyl)phenyl)-1H-pyrazole-4-carboxylic acid] | 22.7 ± 5.5% | 186 to 188 °C |  |
| O=C(O)c1ccc(CN(Cc2ccc(C(=O)O)cc2)S(=O)(=O)c2ccc(C(=O)O)cc2)cc1 [Compound 13, 4,4′-{{[(4-Carboxyphenyl)sulfonyl]azanediyl}bis(methylene)}dibenzoic acid] | 94% |  | I (%) inhibition of Panx-1 currents [2]: 93.7 ± 2.3%; time of maximum anti-allodynic effect [4]: 45 min; pain threshold (licking latency), Cold plate test [4]: significantly increase the mouse pain threshold; also recorded: significant increase of the mouse pain threshold; % inhibition of Panx1-mediated membrane currents [3]: 100%; IC50 [3]: 1.2 µM |

Continued, in another order:

| inhibition at 50 µM [2] | melting point | Structure (SMILES) | also measured |
| --- | --- | --- | --- |
| 28 ± 6.9% | 170 to 172 °C | CCCNc1c(C(=O)O)cnn1-c1ccc(S(=O)(=O)N(CCC)CCC)cc1 [Compound 19c, 1-(4-(N,N-dipropylsulfamoyl)phenyl)-5-(propylamino)-1H-pyrazole-4-carboxylic acid] |  |
| 10.3 ± 4.9% | > 300 °C | CCCCNS(=O)(=O)c1ccc(-n2ncc(C(=O)O)c2N)cc1 [Compound 18c, 5-Amino-1-(4-(N-butylsulfamoyl)phenyl)-1H-pyrazole-4-carboxylic acid] |  |
| 14.3 ± 7.4% | 240 °C (dec.) | CCN(CC)S(=O)(=O)c1ccc(-n2ncc(C(=O)O)c2N)cc1 [Compound 19a, 5-Amino-1-(4-(N,N-diethylsulfamoyl)phenyl)-1H-pyrazole-4-carboxylic acid] |  |
| 0% | 208 to 210 °C (dec.) | CCNS(=O)(=O)c1ccc(-n2ncc(C(=O)O)c2N)cc1 [Compound 18a, 5-Amino-1-(4-(N-ethylsulfamoyl)phenyl)-1H-pyrazole-4-carboxylic acid] |  |
| 4 ± 2.3% | 215 to 218 °C | CCCNS(=O)(=O)c1ccc(-n2ncc(C(=O)O)c2N)cc1 [Compound 18b, 5-Amino-1-(4-(N-propylsulfamoyl)phenyl)-1H-pyrazole-4-carboxylic acid] |  |
